Test results taken from ChEMBL document CHEMBL3991601, “The target landscape of clinical kinase drugs” (Science, 2017).
The source made the active and inactive calls. For most assays here, no stated cut-off is given here; in the data, actives have a measured Kd and inactives only a lower limit.

How the values were obtained:
[1] = target: Bone morphogenetic protein receptor type-1B (Homo sapiens, UniProt O00238)
Ephrin type-A receptor 7 = Ephrin type-A receptor 7 (Homo sapiens, UniProt Q15375)
Ephrin type-B receptor 4 = target: T1, Ephrin type-B receptor 4 (Homo sapiens, UniProt P54760)
T1 sequence (P54760 whole entry): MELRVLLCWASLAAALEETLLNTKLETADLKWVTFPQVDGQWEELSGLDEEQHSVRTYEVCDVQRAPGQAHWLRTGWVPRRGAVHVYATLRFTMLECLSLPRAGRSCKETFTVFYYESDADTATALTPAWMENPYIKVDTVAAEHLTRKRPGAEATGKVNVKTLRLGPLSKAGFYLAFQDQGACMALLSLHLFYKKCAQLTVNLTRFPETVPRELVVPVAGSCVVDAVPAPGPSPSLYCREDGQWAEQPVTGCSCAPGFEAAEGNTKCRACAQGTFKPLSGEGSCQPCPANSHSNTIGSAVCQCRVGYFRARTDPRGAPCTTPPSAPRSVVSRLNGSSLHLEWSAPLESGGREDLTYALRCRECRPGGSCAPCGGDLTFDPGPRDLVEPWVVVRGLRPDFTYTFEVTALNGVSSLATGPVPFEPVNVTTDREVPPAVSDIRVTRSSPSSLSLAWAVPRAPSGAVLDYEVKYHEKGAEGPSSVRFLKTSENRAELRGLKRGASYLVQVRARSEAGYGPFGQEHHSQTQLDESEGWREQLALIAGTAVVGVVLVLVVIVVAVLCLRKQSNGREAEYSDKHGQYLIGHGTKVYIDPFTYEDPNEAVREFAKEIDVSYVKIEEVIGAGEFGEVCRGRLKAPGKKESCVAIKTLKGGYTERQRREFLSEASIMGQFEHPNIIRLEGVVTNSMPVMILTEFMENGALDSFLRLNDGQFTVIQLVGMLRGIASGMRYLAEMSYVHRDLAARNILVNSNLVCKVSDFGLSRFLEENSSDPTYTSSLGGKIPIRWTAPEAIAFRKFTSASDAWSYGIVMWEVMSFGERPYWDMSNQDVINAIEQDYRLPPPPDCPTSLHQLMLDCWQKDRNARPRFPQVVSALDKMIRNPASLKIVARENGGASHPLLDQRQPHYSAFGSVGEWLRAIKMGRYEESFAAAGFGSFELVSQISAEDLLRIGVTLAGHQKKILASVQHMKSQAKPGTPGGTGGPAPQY

[2] = target: Dual specificity mitogen-activated protein kinase kinase 2 (Homo sapiens, UniProt P36507)
[3] = target: Mitogen-activated protein kinase 3 (Homo sapiens, UniProt P27361)
[4] = target: Mitogen-activated protein kinase 9 (Homo sapiens, UniProt P45984)
Rab-like protein 3 = target: T2, Rab-like protein 3 (Homo sapiens, UniProt Q5HYI8)
T2 sequence (Q5HYI8 whole entry): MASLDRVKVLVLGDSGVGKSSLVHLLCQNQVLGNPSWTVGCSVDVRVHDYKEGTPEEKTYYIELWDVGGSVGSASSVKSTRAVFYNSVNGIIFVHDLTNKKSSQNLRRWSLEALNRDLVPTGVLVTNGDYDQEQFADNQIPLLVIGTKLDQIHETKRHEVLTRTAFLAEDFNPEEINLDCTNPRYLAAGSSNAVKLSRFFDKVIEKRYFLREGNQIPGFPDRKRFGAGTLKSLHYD

[5] = target: T3, STE20-related kinase adapter protein alpha (Homo sapiens, UniProt Q7RTN6)
T3 sequence (Q7RTN6 whole entry): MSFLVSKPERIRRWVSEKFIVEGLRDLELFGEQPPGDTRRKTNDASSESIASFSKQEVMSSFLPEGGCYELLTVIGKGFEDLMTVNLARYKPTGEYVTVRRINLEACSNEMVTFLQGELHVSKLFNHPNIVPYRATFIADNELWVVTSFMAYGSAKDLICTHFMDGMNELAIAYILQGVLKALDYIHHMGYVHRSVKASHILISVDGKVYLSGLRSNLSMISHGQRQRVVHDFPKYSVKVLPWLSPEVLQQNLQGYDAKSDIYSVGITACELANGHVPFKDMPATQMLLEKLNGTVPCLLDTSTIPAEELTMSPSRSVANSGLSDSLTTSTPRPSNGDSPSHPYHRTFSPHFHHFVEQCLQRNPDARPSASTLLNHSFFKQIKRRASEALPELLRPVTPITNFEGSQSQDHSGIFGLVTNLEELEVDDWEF

TGF-beta receptor type-1 = target: T4, TGF-beta receptor type-1 (Homo sapiens, UniProt P36897)
T4 sequence (P36897 whole entry): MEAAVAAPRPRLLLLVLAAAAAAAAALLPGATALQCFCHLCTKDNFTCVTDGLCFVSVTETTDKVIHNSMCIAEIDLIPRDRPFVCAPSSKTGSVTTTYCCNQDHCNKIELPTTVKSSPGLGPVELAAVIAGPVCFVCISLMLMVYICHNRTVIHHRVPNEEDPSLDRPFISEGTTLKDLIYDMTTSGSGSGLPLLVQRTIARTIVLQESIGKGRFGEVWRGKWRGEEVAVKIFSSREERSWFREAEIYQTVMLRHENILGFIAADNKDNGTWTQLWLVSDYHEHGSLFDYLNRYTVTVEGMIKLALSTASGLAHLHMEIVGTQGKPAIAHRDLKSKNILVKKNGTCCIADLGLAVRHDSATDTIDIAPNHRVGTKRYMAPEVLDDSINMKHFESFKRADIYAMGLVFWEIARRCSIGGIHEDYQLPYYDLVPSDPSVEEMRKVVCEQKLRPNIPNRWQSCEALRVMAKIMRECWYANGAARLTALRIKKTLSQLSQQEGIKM

Wee1-like protein kinase = Wee1-like protein kinase (Homo sapiens, UniProt P30291)
[6] = target: Tyrosine-protein kinase Yes (Homo sapiens, UniProt P07947)
[7] = target: Citron Rho-interacting kinase (Homo sapiens, UniProt O14578)
Chain of Citron Rho-interacting kinase (O14578 whole entry): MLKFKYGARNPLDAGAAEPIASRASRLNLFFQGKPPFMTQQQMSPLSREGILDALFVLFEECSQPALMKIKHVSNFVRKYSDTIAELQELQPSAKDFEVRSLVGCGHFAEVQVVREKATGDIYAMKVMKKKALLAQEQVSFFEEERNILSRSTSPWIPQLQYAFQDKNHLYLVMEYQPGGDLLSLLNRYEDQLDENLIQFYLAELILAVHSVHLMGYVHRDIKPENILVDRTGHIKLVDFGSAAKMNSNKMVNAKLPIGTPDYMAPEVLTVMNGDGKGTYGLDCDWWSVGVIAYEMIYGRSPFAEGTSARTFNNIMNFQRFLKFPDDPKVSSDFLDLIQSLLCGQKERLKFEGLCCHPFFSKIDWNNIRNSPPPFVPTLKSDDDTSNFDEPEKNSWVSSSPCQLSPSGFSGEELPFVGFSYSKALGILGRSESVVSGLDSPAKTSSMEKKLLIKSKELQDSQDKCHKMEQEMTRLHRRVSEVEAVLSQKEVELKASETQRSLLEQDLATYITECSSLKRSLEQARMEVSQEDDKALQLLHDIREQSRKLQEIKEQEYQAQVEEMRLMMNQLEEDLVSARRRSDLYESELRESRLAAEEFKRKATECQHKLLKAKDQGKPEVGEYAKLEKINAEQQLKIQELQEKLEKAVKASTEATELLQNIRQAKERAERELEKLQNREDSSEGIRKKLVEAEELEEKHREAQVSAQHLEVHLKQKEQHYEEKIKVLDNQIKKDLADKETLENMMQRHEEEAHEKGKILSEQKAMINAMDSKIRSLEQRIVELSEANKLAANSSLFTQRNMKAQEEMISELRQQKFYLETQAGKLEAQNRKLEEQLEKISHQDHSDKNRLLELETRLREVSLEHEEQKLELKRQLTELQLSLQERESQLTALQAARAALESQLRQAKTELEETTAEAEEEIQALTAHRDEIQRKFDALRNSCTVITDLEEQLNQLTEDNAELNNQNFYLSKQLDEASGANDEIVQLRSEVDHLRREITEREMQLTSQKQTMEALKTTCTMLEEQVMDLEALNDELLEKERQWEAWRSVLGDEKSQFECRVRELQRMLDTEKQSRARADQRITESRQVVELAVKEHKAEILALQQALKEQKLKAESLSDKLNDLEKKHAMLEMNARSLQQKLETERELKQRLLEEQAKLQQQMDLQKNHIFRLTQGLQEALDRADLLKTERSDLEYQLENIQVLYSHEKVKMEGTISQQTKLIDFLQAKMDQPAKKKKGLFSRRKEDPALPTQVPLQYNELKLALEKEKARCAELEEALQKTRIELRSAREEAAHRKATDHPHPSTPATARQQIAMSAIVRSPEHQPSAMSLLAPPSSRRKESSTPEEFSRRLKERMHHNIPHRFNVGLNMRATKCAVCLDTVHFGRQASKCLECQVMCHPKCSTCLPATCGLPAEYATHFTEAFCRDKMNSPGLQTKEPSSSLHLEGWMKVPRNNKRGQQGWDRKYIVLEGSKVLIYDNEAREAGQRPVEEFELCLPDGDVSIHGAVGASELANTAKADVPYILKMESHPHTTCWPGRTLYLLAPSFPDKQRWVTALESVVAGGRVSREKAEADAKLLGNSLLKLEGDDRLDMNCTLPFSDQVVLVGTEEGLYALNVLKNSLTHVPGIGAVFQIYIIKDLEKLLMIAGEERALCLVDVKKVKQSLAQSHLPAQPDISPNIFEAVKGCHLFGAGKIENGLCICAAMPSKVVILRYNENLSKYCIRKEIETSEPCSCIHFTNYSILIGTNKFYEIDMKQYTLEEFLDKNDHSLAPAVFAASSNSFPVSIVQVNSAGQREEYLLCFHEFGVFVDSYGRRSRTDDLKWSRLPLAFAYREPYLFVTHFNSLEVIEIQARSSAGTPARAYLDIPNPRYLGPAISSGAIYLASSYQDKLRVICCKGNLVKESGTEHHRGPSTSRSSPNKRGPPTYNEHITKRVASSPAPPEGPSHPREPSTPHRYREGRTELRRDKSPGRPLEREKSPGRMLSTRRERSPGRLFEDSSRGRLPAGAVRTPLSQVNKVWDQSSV

Chain of Mitogen-activated protein kinase 9 (P45984 whole entry): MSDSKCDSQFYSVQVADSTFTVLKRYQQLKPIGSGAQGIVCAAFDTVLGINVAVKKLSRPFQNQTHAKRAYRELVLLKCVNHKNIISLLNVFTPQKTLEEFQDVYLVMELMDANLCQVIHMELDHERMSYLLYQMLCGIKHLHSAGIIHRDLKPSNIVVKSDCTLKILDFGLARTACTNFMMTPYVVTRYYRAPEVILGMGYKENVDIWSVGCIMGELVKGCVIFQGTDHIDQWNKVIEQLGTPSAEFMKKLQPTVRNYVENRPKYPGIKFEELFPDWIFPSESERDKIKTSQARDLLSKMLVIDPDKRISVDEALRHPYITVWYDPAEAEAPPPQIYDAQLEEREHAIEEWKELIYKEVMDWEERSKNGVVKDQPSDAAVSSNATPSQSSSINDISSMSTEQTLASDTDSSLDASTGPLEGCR
Chain of Mitogen-activated protein kinase 3 (P27361 whole entry): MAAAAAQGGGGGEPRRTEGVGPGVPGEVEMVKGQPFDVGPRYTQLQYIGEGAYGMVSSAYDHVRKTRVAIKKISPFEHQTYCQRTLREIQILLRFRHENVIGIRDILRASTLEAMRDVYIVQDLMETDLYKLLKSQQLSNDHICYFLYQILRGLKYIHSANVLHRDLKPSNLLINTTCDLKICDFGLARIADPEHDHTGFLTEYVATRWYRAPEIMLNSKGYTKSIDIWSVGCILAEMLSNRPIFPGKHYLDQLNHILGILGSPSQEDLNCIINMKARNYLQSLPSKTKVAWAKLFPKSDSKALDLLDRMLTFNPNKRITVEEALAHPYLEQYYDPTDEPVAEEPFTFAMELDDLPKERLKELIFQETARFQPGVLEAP
Chain of Wee1-like protein kinase (P30291 whole entry): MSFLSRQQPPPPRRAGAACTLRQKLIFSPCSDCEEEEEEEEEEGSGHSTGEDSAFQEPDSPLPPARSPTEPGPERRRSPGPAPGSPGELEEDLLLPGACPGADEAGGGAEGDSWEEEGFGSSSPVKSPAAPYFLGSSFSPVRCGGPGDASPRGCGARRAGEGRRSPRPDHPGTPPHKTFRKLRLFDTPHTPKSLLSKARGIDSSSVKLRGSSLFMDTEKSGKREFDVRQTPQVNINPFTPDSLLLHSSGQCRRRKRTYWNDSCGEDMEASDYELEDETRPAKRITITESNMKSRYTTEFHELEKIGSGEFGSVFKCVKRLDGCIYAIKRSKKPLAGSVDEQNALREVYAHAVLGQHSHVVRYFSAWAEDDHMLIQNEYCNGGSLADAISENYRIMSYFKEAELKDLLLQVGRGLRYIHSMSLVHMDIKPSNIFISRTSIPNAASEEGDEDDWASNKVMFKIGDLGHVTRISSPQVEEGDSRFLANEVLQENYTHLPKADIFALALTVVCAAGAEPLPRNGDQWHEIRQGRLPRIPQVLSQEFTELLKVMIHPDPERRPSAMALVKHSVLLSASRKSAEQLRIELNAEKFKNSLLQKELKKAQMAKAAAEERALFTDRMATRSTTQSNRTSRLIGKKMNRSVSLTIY
Chain of Dual specificity mitogen-activated protein kinase kinase 2 (P36507 whole entry): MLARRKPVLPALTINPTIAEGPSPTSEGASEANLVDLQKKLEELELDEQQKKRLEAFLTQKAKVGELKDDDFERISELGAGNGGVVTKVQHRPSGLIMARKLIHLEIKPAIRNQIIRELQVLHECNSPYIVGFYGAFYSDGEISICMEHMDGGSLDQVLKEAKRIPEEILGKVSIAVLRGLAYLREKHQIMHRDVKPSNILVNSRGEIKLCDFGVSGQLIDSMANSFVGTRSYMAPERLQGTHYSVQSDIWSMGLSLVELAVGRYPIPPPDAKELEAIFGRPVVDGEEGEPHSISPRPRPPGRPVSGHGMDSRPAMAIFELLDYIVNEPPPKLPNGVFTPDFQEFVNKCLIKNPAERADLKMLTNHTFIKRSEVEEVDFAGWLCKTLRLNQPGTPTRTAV
Chain of Tyrosine-protein kinase Yes (P07947 whole entry): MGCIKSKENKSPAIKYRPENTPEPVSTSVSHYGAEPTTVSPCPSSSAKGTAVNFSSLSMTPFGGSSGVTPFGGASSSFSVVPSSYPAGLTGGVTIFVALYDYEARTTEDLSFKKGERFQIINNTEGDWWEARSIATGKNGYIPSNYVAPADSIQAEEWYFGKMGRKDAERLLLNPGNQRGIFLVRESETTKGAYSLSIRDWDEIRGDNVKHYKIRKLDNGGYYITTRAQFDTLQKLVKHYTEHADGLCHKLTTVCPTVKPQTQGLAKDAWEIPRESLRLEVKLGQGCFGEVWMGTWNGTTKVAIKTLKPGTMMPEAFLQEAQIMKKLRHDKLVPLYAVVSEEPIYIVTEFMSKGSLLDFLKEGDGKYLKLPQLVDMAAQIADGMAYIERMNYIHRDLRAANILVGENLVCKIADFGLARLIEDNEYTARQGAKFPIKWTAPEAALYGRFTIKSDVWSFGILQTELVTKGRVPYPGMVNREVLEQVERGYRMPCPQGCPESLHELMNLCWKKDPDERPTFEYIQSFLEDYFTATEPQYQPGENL
Chain of Bone morphogenetic protein receptor type-1B (O00238 whole entry): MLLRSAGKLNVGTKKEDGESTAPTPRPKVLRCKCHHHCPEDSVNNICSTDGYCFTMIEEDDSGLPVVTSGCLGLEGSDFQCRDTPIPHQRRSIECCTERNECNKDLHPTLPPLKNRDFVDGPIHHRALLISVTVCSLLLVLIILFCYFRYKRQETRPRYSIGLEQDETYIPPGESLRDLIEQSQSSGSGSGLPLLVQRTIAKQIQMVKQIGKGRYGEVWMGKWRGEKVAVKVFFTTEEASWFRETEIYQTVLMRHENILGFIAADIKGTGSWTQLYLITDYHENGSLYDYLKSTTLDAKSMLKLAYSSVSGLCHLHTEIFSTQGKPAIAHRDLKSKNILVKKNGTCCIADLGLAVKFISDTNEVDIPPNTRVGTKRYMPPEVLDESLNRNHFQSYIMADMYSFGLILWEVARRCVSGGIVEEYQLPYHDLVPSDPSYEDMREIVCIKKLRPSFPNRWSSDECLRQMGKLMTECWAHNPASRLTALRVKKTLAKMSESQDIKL

Structure (SMILES) | Kd [1] | Kd (Ephrin type-A receptor 7) | Kd (Ephrin type-B receptor 4) | Kd [2] | Kd [3] | Kd [4] | Kd (Rab-like protein 3) | Kd [5] | Kd (TGF-beta receptor type-1) | Kd (Wee1-like protein kinase) | Kd [6] | Kd [7]
COc1cccc(Nc2ncnn3ccc(CN4CC[C@@H](N)[C@H](O)C4)c23)c1 [BMS-690514] | > 30 µM (inactive) | > 30 µM (inactive) | > 30 µM (inactive) | > 30 µM (inactive) | > 30 µM (inactive) | > 30 µM (inactive) | > 30 µM (inactive) | > 30 µM (inactive) | 1.23 µM (active) | > 30 µM (inactive) | 1.03 µM (active) | 
O=C(NC[C@H](O)CO)c1ccncc1Nc1ccc(I)cc1F [PIMASERTIB] | > 30 µM (inactive) |  | > 30 µM (inactive) | 0.038 µM (active) | > 30 µM (inactive) | > 30 µM (inactive) | > 30 µM (inactive) | > 30 µM (inactive) | > 30 µM (inactive) | > 30 µM (inactive) | > 30 µM (inactive) | > 30 µM (inactive)
O=C(Nc1ccc(OC(F)(F)F)cc1)c1sccc1NCc1ccnc2ccccc12 [OSI-930] | > 30 µM (inactive) | > 30 µM (inactive) | > 30 µM (inactive) | > 30 µM (inactive) | > 30 µM (inactive) | > 30 µM (inactive) |  | > 30 µM (inactive) | > 30 µM (inactive) | > 30 µM (inactive) | > 30 µM (inactive) | > 30 µM (inactive)
NC[C@@](O)(c1ccc(Cl)cc1)c1ccc(-c2cn[nH]c2)cc1 [AT-13148] | > 30 µM (inactive) | > 30 µM (inactive) | > 30 µM (inactive) | > 30 µM (inactive) | > 30 µM (inactive) | > 30 µM (inactive) |  | > 30 µM (inactive) | > 30 µM (inactive) | > 30 µM (inactive) | > 30 µM (inactive) | > 30 µM (inactive)
C=CCN(/C=C1/C(=O)O[C@H](COC)[C@@]2(C)C1=C(O)C(=O)C1=C2[C@H](OC(C)=O)C[C@]2(C)C(=O)CC[C@@H]12)CC=C [SONOLISIB] | > 30 µM (inactive) |  | > 30 µM (inactive) | > 30 µM (inactive) | > 30 µM (inactive) | > 30 µM (inactive) | > 30 µM (inactive) | > 30 µM (inactive) | > 30 µM (inactive) | > 30 µM (inactive) | > 30 µM (inactive) | > 30 µM (inactive)
Cc1c(NC(=O)OC[C@@H]2COCCN2)cn2ncnc(Nc3ccc4c(cnn4Cc4cccc(F)c4)c3)c12 [AC-480] | > 30 µM (inactive) | > 30 µM (inactive) | > 30 µM (inactive) | > 30 µM (inactive) | > 30 µM (inactive) | > 30 µM (inactive) |  | > 30 µM (inactive) | > 30 µM (inactive) | > 30 µM (inactive) | > 30 µM (inactive) | > 30 µM (inactive)
O=S(=O)(c1cccc2c(O)nccc12)N1CCCNCC1 [HYDROXYFASUDIL] | > 30 µM (inactive) | > 30 µM (inactive) | > 30 µM (inactive) | > 30 µM (inactive) | > 30 µM (inactive) | > 30 µM (inactive) | > 30 µM (inactive) | > 30 µM (inactive) |  |  | > 30 µM (inactive) | > 30 µM (inactive)
